Data on eleven molecules can be found in US9132140B2, “Boronic acid derivatives and therapeutic uses thereof” (Rempex Pharmaceuticals, Inc., priority 2013, dated 2015).

The test system of assay [1] is KP1087 (KPC-2, CTX-M-15, SHV-11, TEM-1). Format: cell-based, Klebsiella pneumoniae. As to conditions: KP1087; alone. The text has this:
(§1) The results are present in Table 6.
(§2) The results are present in Table 7.

Assay [2] deals with KP1081 (NDM-1, TEM-1, SHV-11, CMY-6, CTX-M-15). The format is cell-based, Klebsiella pneumoniae. The conditions noted are these: KP1081; alone.
Text: as §1, §2

In the next assay the target is CMY-2 (Klebsiella pneumoniae, UniProt Q48434). The assay can be described thus: Inhibition of purified beta-lactamase, nitrocefin cleavage. The conditions noted are these: nitrocefin; read-out: Ki (CMY-2, NCF). Format: biochemical. On the procedure:
(§3) Purified enzymes were mixed with various concentrations of inhibitors in reaction buffer and incubated for 10 min at room temperature. Nitrocefin was added and substrate cleavage profiles were recorded at 490 nm every 10 sec for 10 min.

The next assay addresses CTX-M-14 (Escherichia coli, UniProt Q9L5C7). Described as above. The format is biochemical. On the procedure:
as §3

A further assay deals with OXA-48 (Klebsiella pneumoniae, UniProt Q6XEC0). Described as above. The conditions noted are these: read-out: Ki (OXA-48, NCF). Format: biochemical. On the procedure: as §3
Assay [3] has as its target T1, KPC-2 (Klebsiella pneumoniae, UniProt Q9F663). Described as above. Format: biochemical. As to conditions: read-out: Ki (KPC-2, NCF). As for the experimental part: as §3
For a further assay, the target named is SHV-12 (Klebsiella pneumoniae, UniProt P0AD64, E235K/G234S/L31Q). Described as above. The format is biochemical. The conditions noted are these: read-out: Ki (SHV-12, NCF). On the procedure: as §3
For a further assay, the target named is P99/AmpC of ECL (Enterobacter cloacae, UniProt P05364). The assay can be described thus: biochemical. As to conditions: nitrocefin; read-out: Ki (P99/AmpC of ECL, NCF). On the procedure:
as §3

In assay [4] the target is T1, KPC-2. The assay can be described thus: Inhibition of purified class A carbapenemase, biapenem cleavage. Format: biochemical. The conditions noted are these: substrate biapenem 100 μM.
In a further assay the target is NDM-1 (Klebsiella pneumoniae, UniProt C7C422). The assay can be described thus: biochemical. As to conditions: substrate imipenem 100 μM.
NDM-1, sequence (C7C422 29-270, looked up, species assumed): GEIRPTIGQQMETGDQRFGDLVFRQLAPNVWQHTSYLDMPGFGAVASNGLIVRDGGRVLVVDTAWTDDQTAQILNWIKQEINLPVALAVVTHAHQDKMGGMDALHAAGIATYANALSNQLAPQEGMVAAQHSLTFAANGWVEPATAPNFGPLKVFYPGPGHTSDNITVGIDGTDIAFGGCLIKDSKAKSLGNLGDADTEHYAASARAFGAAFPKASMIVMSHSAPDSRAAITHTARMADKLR

SHV-12, sequence (P0AD64 22-286 L31Q/G234S/E235K): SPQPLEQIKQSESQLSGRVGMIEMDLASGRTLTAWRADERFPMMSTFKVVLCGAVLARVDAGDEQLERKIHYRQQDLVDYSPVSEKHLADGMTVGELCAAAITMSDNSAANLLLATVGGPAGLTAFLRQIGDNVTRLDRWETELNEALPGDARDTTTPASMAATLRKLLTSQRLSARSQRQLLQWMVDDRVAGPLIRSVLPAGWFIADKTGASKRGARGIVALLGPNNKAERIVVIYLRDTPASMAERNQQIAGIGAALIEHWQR
CMY-2, sequence (Q48434 21-381, species assumed): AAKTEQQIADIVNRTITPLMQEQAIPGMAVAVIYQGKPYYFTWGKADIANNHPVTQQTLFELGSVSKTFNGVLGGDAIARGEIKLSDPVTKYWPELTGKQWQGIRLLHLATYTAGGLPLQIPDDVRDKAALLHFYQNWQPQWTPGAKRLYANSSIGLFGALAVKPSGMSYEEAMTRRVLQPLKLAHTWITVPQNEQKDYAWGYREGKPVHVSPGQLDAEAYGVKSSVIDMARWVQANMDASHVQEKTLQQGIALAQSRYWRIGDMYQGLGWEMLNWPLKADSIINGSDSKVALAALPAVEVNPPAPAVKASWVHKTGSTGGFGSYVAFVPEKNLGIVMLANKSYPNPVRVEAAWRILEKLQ
P99/AmpC of ECL, sequence (P05364 21-381): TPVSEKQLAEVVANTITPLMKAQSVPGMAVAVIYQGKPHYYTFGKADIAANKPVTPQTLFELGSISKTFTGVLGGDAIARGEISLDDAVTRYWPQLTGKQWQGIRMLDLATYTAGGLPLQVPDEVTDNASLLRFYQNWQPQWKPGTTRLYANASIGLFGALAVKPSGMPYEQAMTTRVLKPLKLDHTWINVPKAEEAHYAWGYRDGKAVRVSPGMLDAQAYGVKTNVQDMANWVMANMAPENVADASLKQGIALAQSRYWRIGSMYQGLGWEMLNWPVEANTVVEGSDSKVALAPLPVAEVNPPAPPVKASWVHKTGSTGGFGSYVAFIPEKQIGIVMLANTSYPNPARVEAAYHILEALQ
T1 sequence (Q9F663 25-293, looked up, species assumed): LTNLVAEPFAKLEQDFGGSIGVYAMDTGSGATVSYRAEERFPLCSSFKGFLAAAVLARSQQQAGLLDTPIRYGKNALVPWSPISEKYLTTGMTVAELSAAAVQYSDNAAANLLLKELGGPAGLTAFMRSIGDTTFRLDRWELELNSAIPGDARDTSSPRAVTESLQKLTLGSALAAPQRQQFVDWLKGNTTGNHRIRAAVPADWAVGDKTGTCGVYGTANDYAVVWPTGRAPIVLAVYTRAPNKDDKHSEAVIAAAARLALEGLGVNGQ
CTX-M-14, sequence (Q9L5C7 entry or part of it): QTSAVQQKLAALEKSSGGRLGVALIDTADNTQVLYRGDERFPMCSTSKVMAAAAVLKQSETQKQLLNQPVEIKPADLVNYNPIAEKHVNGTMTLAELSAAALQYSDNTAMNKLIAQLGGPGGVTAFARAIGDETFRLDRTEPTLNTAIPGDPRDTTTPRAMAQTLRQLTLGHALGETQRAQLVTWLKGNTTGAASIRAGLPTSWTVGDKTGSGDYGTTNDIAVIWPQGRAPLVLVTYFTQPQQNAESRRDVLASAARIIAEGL
OXA-48, sequence (Q6XEC0 23-265, looked up): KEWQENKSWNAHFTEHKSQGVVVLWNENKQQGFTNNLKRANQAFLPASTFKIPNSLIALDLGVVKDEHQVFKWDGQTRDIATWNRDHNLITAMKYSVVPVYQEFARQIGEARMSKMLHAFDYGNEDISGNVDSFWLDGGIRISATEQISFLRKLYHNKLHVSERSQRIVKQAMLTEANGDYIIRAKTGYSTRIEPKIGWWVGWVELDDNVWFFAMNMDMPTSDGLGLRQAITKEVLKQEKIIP

Take `C[C@@H](O)[C@H]1C(=O)N2C(C(=O)[O-])=C(SC3Cn4cnc[n+]4C3)[C@H](C)[C@H]12` (stereo partly shown) [Biapenem]: the “Carbapenem MIC alone” value in [1] and in [2] was “Z (MIC of greater than 10 μg/mL)” in each case.
On to `O=C(O)c1cccc2c1OB(O)[C@@H](Sc1nnc[nH]1)C2` [Compound 2, (R)-3-(4H-1,2,4-triazol-3-ylthio)-2-hydroxy-3,4-dihydro-2H-benzo[e][1,2]oxaborinine-8-carboxylic acid], for which the Ki at CMY-2 is 0.1 to 1 µM; at CTX-M-14, 0.1 to 1 µM; at OXA-48 it was < 0.1 µM; at KPC-2 [3] it was 0.1 to 1 µM; on SHV-12, < 0.1 µM; at P99/AmpC of ECL, 0.1 to 1 µM. Further, the Ki on KPC-2 [4] was in the range of 0.01 to 0.1 µM.
Consider `CC(=O)Nc1nnc(S[C@H]2Cc3cccc(C(=O)O)c3OB2O)s1` [Compound 7, (R)-3-(5-acetamido-1,3,4-thiadiazol-2-ylthio)-2-hydroxy-3,4-dihydro-2H-benzo[e][1,2]oxaborinine-8-carboxylic acid], for which the Ki on CMY-2, at CTX-M-14, at OXA-48, at SHV-12 and at P99/AmpC of ECL was < 0.1 µM each time.
Consider `Nc1nnc(S[C@H]2Cc3cccc(C(=O)O)c3OB2O)s1` [Compound 4, (R)-3-(5-amino-1,3,4-thiadiazol-2-ylthio)-2-hydroxy-3,4-dihydro-2H-benzo[e][1,2]oxaborinine-8-carboxylic acid], for which the Ki at CMY-2, on CTX-M-14, on OXA-48, on SHV-12 and at P99/AmpC of ECL was < 0.1 µM in each case.
Turning to `NC(=O)CCS[C@H]1Cc2cccc(C(=O)O)c2OB1O` [Compound 9, (R)-3-(3-amino-3-oxopropylthio)-2-hydroxy-3,4-dihydro-2H-benzo[e][1,2]oxaborinine-8-carboxylic acid], the Ki at CMY-2 was < 0.1 µM; at CTX-M-14, < 0.1 µM; at OXA-48 it was < 0.1 µM; at KPC-2 [3], < 0.1 µM; at SHV-12 it was 0.1 to 1 µM; on P99/AmpC of ECL it was < 0.1 µM.
`CO[C@H]1Cc2ccc(F)c(C(=O)O)c2OB1O` [Compound 19, (R)-7-fluoro-2-hydroxy-3-methoxy-3,4-dihydro-2H-benzo[e][1,2]oxaborinine-8-carboxylic acid]: the Ki at NDM-1 was > 0.1 µM; on CTX-M-14, < 0.1 µM; on OXA-48, < 0.1 µM; on KPC-2 [3], < 0.1 µM; at SHV-12, < 0.1 µM; at P99/AmpC of ECL it was < 0.1 µM.
For the molecule `CS[C@H]1Cc2cccc(C(=O)O)c2OB1O` [Compound 16, (R)-2-hydroxy-3-(methylthio)-3,4-dihydro-2H-benzo[e][1,2]oxaborinine-8-carboxylic acid], the Ki on NDM-1 was > 0.1 µM; on CTX-M-14, < 0.1 µM; on OXA-48, < 0.1 µM; on KPC-2 [3], < 0.1 µM; at SHV-12 it was 0.1 to 1 µM; at P99/AmpC of ECL, < 0.1 µM. At KPC-2 [4], this molecule yielded a Ki of 0.01 to 0.1 µM.
Consider `Cn1cnnc1S[C@H]1Cc2cccc(C(=O)O)c2OB1O` [Compound 15, (R)-2-hydroxy-3-(4-methyl-4H-1,2,4-triazol-3-ylthio)-3,4-dihydro-2H-benzo[e][1,2]oxaborinine-8-carboxylic acid], for which the Ki on NDM-1 is < 0.01 µM; on CMY-2, < 0.1 µM; at CTX-M-14 it was < 0.1 µM; at OXA-48, < 0.1 µM; at KPC-2 [3] it was 0.1 to 1 µM; on SHV-12, < 0.1 µM. In addition, the Ki on P99/AmpC of ECL was < 0.1 µM; at KPC-2 [4], 0.01 to 0.1 µM.
Consider `NC(=O)CC1Cc2cccc(C(=O)O)c2OB1O` (stereo not shown) [Compound 22, 3-(2-amino-2-oxoethyl)-2-hydroxy-3,4-dihydro-2H-benzo[e][1,2]oxaborinine-8-carboxylic acid], for which the Ki on CMY-2, on CTX-M-14, at OXA-48, on KPC-2 [3], on SHV-12 and at P99/AmpC of ECL was < 0.1 µM throughout.
For the molecule `NC(=O)CS[C@H]1Cc2cccc(C(=O)O)c2OB1O` [Compound 3, (R)-3-(2-amino-2-oxoethylthio)-2-hydroxy-3,4-dihydro-2H-benzo[e][1,2]oxaborinine-8-carboxylic acid], the Ki was < 0.1 µM at CMY-2; < 0.1 µM on CTX-M-14; < 0.1 µM on OXA-48; < 0.1 µM at KPC-2 [3]; 0.1 to 1 µM at SHV-12; < 0.1 µM on P99/AmpC of ECL. At KPC-2 [4], the Ki was 0.01 to 0.1 µM.
Turning to `C[C@@H](O)[C@H]1C(=O)N2C(C(=O)O)=C(S[C@@H]3CN[C@H](CNS(N)(=O)=O)C3)[C@H](C)[C@H]12` [Doripenem], the “Carbapenem MIC alone” value in assay [1] and in [2] was “Z (MIC of greater than 10 μg/mL)” throughout.
